Test [1] deals with K562. Put plainly: Induction of pSTAT5 expression level in human K562 cells at 15 uM after 24 hrs by FACScan flow cytometry. It counts as functional, cell-based. (In general: A flow cytometer gives signals particle by particle.)
Test [2] deals with K562. Put plainly: Cytotoxicity against human K562 cells after 48 hrs by trypan blue dye exclusion test. The note with it: K562, 48 h. Format: functional, cell-based.
Test [3] deals with K562. As to the kind of experiment: Cell cycle arrest in human K562 cells assessed as accumulation at G2-M phase after 24 hrs using propidium iodide staining at 5 uM by flow cytometry (reference value: 15.01%). It counts as functional.
Test [4] deals with K562. Put plainly: Ratio of Pimozide IC50 to compound IC50 for human K562 cells by trypan blue dye exclusion test. Format: functional.
The subject of test [5] is K562. As to the kind of experiment: Cell cycle arrest in human K562 cells assessed as accumulation at S phase after 24 hrs using propidium iodide staining at 5 uM by flow cytometry (reference value: 45.94%). It counts as functional.
Test [6] deals with K562. As to the kind of experiment: Cell cycle arrest in human K562 cells assessed as accumulation at G1 phase after 24 hrs using propidium iodide staining at 5 uM by flow cytometry (reference value: 39.05%). It counts as functional.
Test [7] relates to K562. Put plainly: Induction of pSTAT5 expression level in human K562 cells at 10 uM after 24 hrs by FACScan flow cytometry. It counts as functional, cell-based.
In test [8] the test system is K562. As to the kind of experiment: Ratio of Pimozide to compound for pSTAT5 expression level in human K562 cells. It counts as functional.
Test [9] deals with K562. Put plainly: Ratio of Pimozide AC50 to compound AC50 for human K562 cells by annexin V/propidium iodide staining-based flow cytometric analysis. It counts as functional.
The subject of test [10] is K562. As to the kind of experiment: Induction of apoptosis in human K562 cells by annexin V/propidium iodide staining-based flow cytometric analysis. It counts as functional, cell-based.
Test [11] concerns K562. Put plainly: Effect on pSTAT5 expression level in human K562 cells at 30 uM after 24 hrs by FACScan flow cytometry. Format: functional, cell-based.
Test [12] deals with K562. As to the kind of experiment: Cell cycle arrest in human K562 cells assessed as accumulation at G2-M phase after 24 hrs using propidium iodide staining at 40 uM by flow cytometry (reference value: 15.01%). It counts as functional.
The subject of test [13] is K562. As to the kind of experiment: Cell cycle arrest in human K562 cells assessed as accumulation at S phase after 24 hrs using propidium iodide staining at 40 uM by flow cytometry (reference value: 45.94%). Format: functional.
In test [14] the test system is K562. Put plainly: Cell cycle arrest in human K562 cells assessed as accumulation at G1 phase after 24 hrs using propidium iodide staining at 40 uM by flow cytometry (reference value: 39.05%). Format: functional.
In test [15] the test system is K562. Put plainly: Effect on pSTAT5 expression level in human K562 cells at 10 uM after 24 hrs by FACScan flow cytometry. It counts as functional, cell-based.
The subject of test [16] is K562. As to the kind of experiment: Cell cycle arrest in human K562 cells assessed as accumulation at G1 phase after 24 hrs using propidium iodide staining at 10 uM by flow cytometry (reference value: 39.05%). It counts as functional.
Test [17] relates to K562. Put plainly: Cell cycle arrest in human K562 cells assessed as accumulation at G2-M phase after 24 hrs using propidium iodide staining at 10 uM by flow cytometry (reference value: 15.01%). Format: functional.
The subject of test [18] is K562. As to the kind of experiment: Cell cycle arrest in human K562 cells assessed as accumulation at S phase after 24 hrs using propidium iodide staining at 10 uM by flow cytometry (reference value: 45.94%). Format: functional.
The test system of test [19] is K562. As to the kind of experiment: Reduction in pSTAT5 expression level in human K562 cells at 10 uM after 24 hrs by FACScan flow cytometry. Format: functional, cell-based.
For test [20], the system named is K562. As to the kind of experiment: Cell cycle arrest in human K562 cells assessed as accumulation at G1 phase after 24 hrs using propidium iodide staining at 30 uM by flow cytometry (reference value: 39.05%). Format: functional.
In test [21] the test system is K562. Put plainly: Effect on pSTAT5 expression level in human K562 cells at 20 uM after 24 hrs by FACScan flow cytometry. It counts as functional, cell-based.
The test system of test [22] is K562. Put plainly: Cell cycle arrest in human K562 cells assessed as accumulation at S phase after 24 hrs using propidium iodide staining at 30 uM by flow cytometry (reference value: 45.94%). It counts as functional.
Test [23] has as its system K562. Put plainly: Cell cycle arrest in human K562 cells assessed as accumulation at G2-M phase after 24 hrs using propidium iodide staining at 30 uM by flow cytometry (reference value: 15.01%). It counts as functional.
Test [24] relates to K562. Put plainly: Cell cycle arrest in human K562 cells assessed as accumulation at G2-M phase after 24 hrs using propidium iodide staining at 20 uM by flow cytometry (reference value: 15.01%). It counts as functional.
Test [25] has as its system K562. Put plainly: Cell cycle arrest in human K562 cells assessed as accumulation at S phase after 24 hrs using propidium iodide staining at 20 uM by flow cytometry (reference value: 45.94%). Format: functional.
Test [26] concerns K562. Put plainly: Cell cycle arrest in human K562 cells assessed as accumulation at G1 phase after 24 hrs using propidium iodide staining at 20 uM by flow cytometry (reference value: 39.05%). It counts as functional.
In test [27] the test system is K562. Put plainly: Cell cycle arrest in human K562 cells assessed as accumulation at G1 phase after 24 hrs using propidium iodide staining at 7 uM by flow cytometry (reference value: 39.05%). Format: functional.
The test system of test [28] is K562. As to the kind of experiment: Cell cycle arrest in human K562 cells assessed as accumulation at S phase after 24 hrs using propidium iodide staining at 7 uM by flow cytometry (reference value: 45.94%). Format: functional.
For test [29], the system named is K562. Put plainly: Cell cycle arrest in human K562 cells assessed as accumulation at G2-M phase after 24 hrs using propidium iodide staining at 7 uM by flow cytometry (reference value: 15.01%). It counts as functional.

The source of these data is ChEMBL document CHEMBL3352445, “Inhibition of activated STAT5 in Bcr/Abl expressing leukemia cells with new pimozide derivatives” (Bioorg Med Chem Lett, 2014).

Calls of active or inactive are those of the source. The rule behind the calls is not given here.

For `O=C(CI)N1CCC(n2c(=O)[nH]c3ccccc32)CC1`, the outcome with K562 [1] and in the test with K562 [7] was Active. Besides, the IC50 – broadly, the concentration at which inhibition is half-maximal – in the test on K562 [2] was 1.8 µM. Moreover, the Activity with K562 [3] came to 13.98%; with K562 [5] it was 39.06%; with K562 [6], 46.96%. Further, the “Ratio IC50” value with K562 [4] was 2.7; with K562 [8], 1.49; in the test with K562 [9], 2. In addition, the activity with K562 [10] was half-maximal at 5 µM (AC50).
Compound `O=C(CCC(c1ccc(F)cc1)c1ccc(F)cc1)N1CCC(n2c(=O)[nH]c3ccccc32)CC1` registered an IC50 in the test on K562 [2] greater than 50 µM. Besides, in the test on K562 [10], the AC50 (as a rule, the concentration giving half of the maximal activity seen) is greater than 50 µM.
For the compound `O=C(Cc1cc2ccccc2[nH]1)N1CCC(n2c(=O)[nH]c3ccccc32)CC1`, in the test with K562 [2], the IC50 is greater than 50 µM. Further, the AC50 in the test on K562 [10] was greater than 50 µM.
Turning to `CC(=O)N1CCC(n2c(=O)[nH]c3ccccc32)CC1`, in the test with K562 [2], the IC50 was greater than 50 µM. Besides, the AC50 in the test on K562 [10] was greater than 50 µM.
Compound `O=C(Cc1ccc([N+](=O)[O-])cc1)N1CCC(n2c(=O)[nH]c3ccccc32)CC1` yielded an IC50 with K562 [2] of 35 µM. In addition, the result in the test on K562 [11] was inactive. The results for the Activity with K562 [12], in the test on K562 [13] and in the test on K562 [14] were 6.07%, 62.21% and 31.72%, respectively. In the test with K562 [10], this compound returned an AC50 greater than 50 µM.
`O=C(CCl)N1CCC(n2c(=O)[nH]c3ccccc32)CC1` returned an IC50 in the test on K562 [2] of 7.3 µM. The result in the test on K562 [15] was inactive. For the same compound, the Activity in the test on K562 [16] turned out to be 33.67%; in the test on K562 [17], 6.1%; in the test on K562 [18], 60.23%. Besides, in the test with K562 [10], the AC50 was 14 µM.
Take `N#CCC(=O)N1CCC(n2c(=O)[nH]c3ccccc32)CC1`: the IC50 in the test with K562 [2] is greater than 50 µM. Besides, the AC50 in the test with K562 [10] is greater than 50 µM.
With `O=c1[nH]c2ccccc2n1C1CCN(CCCC(c2ccc(F)cc2)c2ccc(F)cc2)CC1` [PIMOZIDE], the IC50 with K562 [2] came out at 5 µM. For the same compound, the Activity with K562 [16] is 51.28%; with K562 [17] it was 10.31%; in the test on K562 [18], 38.41%; with K562 [19] it was “Dose-dependent effect”. Further, in the test on K562 [10], the AC50 amounted to 10 µM.
Consider `O=C(CCC(c1ccccc1)c1ccccc1)N1CCC(n2c(=O)[nH]c3ccccc32)CC1`, for which, in the test on K562 [2], 14 µM corresponded to half-maximal inhibition (IC50). Further, the Activity was determined as 48.02% with K562 [20], 31.57% in the test on K562 [22] and 20.41% in the test on K562 [23]. Further, the outcome with K562 [21] was inactive. Moreover, the AC50 with K562 [10] was found to be 19 µM.
As for `CN1CCC(n2c(=O)[nH]c3ccccc32)CC1`, the concentration for half-maximal inhibition (IC50) with K562 [2] was greater than 50 µM. The compound also returned an AC50 with K562 [10] greater than 50 µM.
Compound `O=C(CC=C(c1ccc(F)cc1)c1ccc(F)cc1)N1CCC(n2c(=O)[nH]c3ccccc32)CC1` came in with an IC50 in the test on K562 [2] of 18 µM. In addition, the Activity in the test on K562 [20] came out at 47.2%; in the test with K562 [22], 46.64%; with K562 [23], 6.16%. Besides, the outcome in the test on K562 [21] was inactive. In the test on K562 [10], this compound registered an AC50 of 35 µM.
`COc1ccc(CC(=O)N2CCC(n3c(=O)[nH]c4ccccc43)CC2)cc1` returned an IC50 in the test on K562 [2] greater than 50 µM. The AC50 with K562 [10] was greater than 50 µM.
As to `O=C(CC=C(c1ccccc1)c1ccccc1)N1CCC(n2c(=O)[nH]c3ccccc32)CC1`, in the test on K562 [2], inhibition was half-maximal at 13 µM (IC50). Moreover, the Activity worked out at 7.33% in the test on K562 [24], 58.57% in the test on K562 [25] and 34.1% with K562 [26]. Further, the result with K562 [21] was inactive. Also, the AC50 in the test with K562 [10] stood at 18 µM.
In the test with K562 [2], `O=c1[nH]c2ccccc2n1C1CCNCC1` had an IC50 greater than 50 µM. This compound gave an AC50 with K562 [10] greater than 50 µM.
Compound `C=CC(=O)N1CCC(n2c(=O)[nH]c3ccccc32)CC1` displayed an IC50 with K562 [2] greater than 50 µM. Besides, the AC50 with K562 [10] is greater than 50 µM.
`O=C(Cc1ccccc1)N1CCC(n2c(=O)[nH]c3ccccc32)CC1`: in the test with K562 [2], the IC50 was greater than 50 µM. In the test on K562 [10], this compound had an AC50 greater than 50 µM.
Regarding `O=C(CBr)N1CCC(n2c(=O)[nH]c3ccccc32)CC1`, the result with K562 [1] and in the test with K562 [7] was Active. The compound further displayed a concentration for half-maximal inhibition (IC50) with K562 [2] of 2.4 µM. Moreover, the Activity stood at 47.55% in the test with K562 [27], 43.23% in the test on K562 [28] and 9.22% in the test with K562 [29]. The compound further registered an AC50 in the test on K562 [10] of 4.8 µM.
